Like-named read-outs stand apart in the source and are kept apart here.

One data set deals with CD1 mice. The conditions noted are these: CD1, mouse, in vivo, ip. As to the method: To define the acute toxicity of Sag and Sag NO2, the test compound was administered i.p. to CD1 mice at the single doses of 250, 500, 1000 and 1500 mg/Kg. Control groups were treated i.p. with vehicle (pure DMSO; 100 μl/mouse). Each group consisted of 10 mice. Mortality was evaluated every hour for the first 4 hours and then every 10 hours until 14 days after dosing.

The subject of a further data set is C6 cells. The experiment in a line: Cyclin D3 and p53 expression (cELISA, immunocytochemistry, Western blot), C6. The format is cell-based, rat. The conditions noted are these: 18.8 μM, 24 h (Western blot 4 h). An excerpt:
A slightly modified method for cell-based ELISA (cELISA) by Versteeg (Versteed et al., 2000) was used to measure the expression of galactocerebroside, glial fibrilar acidic protein (GFAP), myelin basic protein (MBP), cyclin D3, p53 and p-AKT. Briefly, at the end of cultivation period cells were fixed in 4% paraformaldehyde, endogenous peroxydase was quenched with 1% H2O2 in PBS containing 0.1% Triton X-100 (PBST), and unspecific binding of antibodies blocked with PBST solution containing 10% FCS. […] The absorbance at 450 nm was measured in an automated microplate reader 15 min after incubation with peroxydase substrate TMB and subsequently to addition of 0.1 M HCl. To facilitate comparison between treatments, the obtained absorbances were corrected for the cell number that was determined by crystal violet staining, as described in the original protocol.
The detection of expression of cyclin D3 and p53 expression was performed by the immunocytochemical procedure as previously described (Mijatovic et al, 2005). The cells were cultivated in glass chamber-slides (3×10^4 cells/well) and cyclin D3 and p53 expression were detected with specific antibodies against cyclin D3 (1:1000, Santa Cruz Biotechnology, Santa Cruz, Calif.) and p53 (1:500, Santa Cruz Biotechnology, Santa Cruz, Calif.). […]
Background: In western blotting, separated proteins are transferred to a membrane and probed.

In turn, `CC(C)(C)NC(=O)[C@@H]1C[C@@H]2CCCC[C@@H]2CN1C[C@@H](O)[C@H](Cc1ccccc1)NC(=O)[C@H](CC(N)=O)NC(=O)c1ccc2ccccc2n1` [Saq, Saquinavir, reference compound] came in with a lethality in the data set with CD1 mice (500 mg/kg, 24 h) of 20%. In the data set with CD1 mice (1000 mg/kg, 14 days), this compound gave a lethality of 30%. Moreover, in the data set with CD1 mice (14 days), the lethality is recorded as 100%, the “time of death (mean±SD)” value stood at 65 ± 58 h and the “time of death (range)” value fell in the range of 18 to 144 h.
Regarding `CC(C)(C)NC(=O)[C@@H]1C[C@@H]2CCCC[C@@H]2CN1C[C@@H](O[N+](=O)[O-])[C@H](Cc1ccccc1)NC(=O)[C@H](CC(N)=O)NC(=O)c1ccc2ccccc2n1` [Saq-NO2, nitric ester of Saquinavir], in the data set on C6 cells, the “cyclin D3 expression” value is “not considerably changed” and the p53 expression entry was “much higher extent than Saq”.

Source of the values: US8563578B2, “Antitumor properties of NO modified protease inhibitors” (Onconox APS, priority 2008, dated 2013).
